# Results as given in patent US12161669B2, “Compositions and methods for cell targeting therapies” (UMC UTRECHT HOLDING B.V., priority 2017, dated 2024).
# Assays:
# [1] = system: CD277 and F-actin; assay: Colocalization of CD277 and F-actin in HEK 293 cells; assay type: cell-based; settings: single agent vs medium
# Experimental: To determine colocalization between BTN3 molecules and the actin cytoskeleton, HEK 293 cells were grown onto poly-L-lysin-coated coverslips and pretreated with either calpeptin (2 μg/ml) or C3 transferase (20 μg/ml) prior to treating samples with pamidronate Cells were fixed, permeabilized and BTN3 and F-actin were stained with DyLight 680-conjugated BTN3 antibody (clone BT3.1, Novus Biologicals) and Fluorescein-coupled phalloidin (Sigma), respectively. The correlation coefficient between BTN3 and F-actin signal was determined as a measure of colocalization using Volocity software.
# [2] = system: RhoB and CD277; assay: Flow cytometry FRET of RhoB-CD277 association in HEK 293 cells; assay type: cell-based; settings: ABP treated vs untreated
# Experimental: To study association of RhoB and BTN3 molecules, cells were permeabilized by using Permeabilization solution 2 (BD), then blocked with PBS containing 50% Human serum and labeled with rabbit polyclonal anti-RhoB antibody (AbCam). After washing with PBS, samples were labeled with Alexa594-conjugated Goat anti-Rabbit IgG (acceptor) (Jackson ImmunoResearch) and CD277-PE (donor) (BT3.1, Biollegend), respectively. The donor fluorescence was measured using a FACS Canto-II flow cytometer (BD) where donor fluorescence of the double-labeled samples was compared with that of samples labeled only with donor antibody. FRET efficiency was calculated from the fractional decrease of the donor fluorescence in the presence of the acceptor.
# [3] = system: Daudi cells; assay: sTCR YG-bead conjugation to Daudi cells; assay type: binding; settings: with vs without PAM
# From the text: The extracellular domains of the TCR chains were amplified from synthetic DNA encoding the full length TCRs. The domain boundaries were based on ones published before for Vγ9Vδ2 TCR G115. The TCR chains were ligated in to a modified pBullet vector containing a μ-phosphatase signal peptide at the 5′ end and fos zipper at the 3′ end of the construct. The TCRγ chains were ligated in a modified pBullet vector containing a μ-phosphatase signal peptide at the 5′ end and at the 3′ a jun zipper followed by a biotin acceptor peptide and a poly-histidine tag. Synthetic DNA encoding for the bacterial biotin ligase BirA was also ligated in a pBullet vector containing a signal peptide. The expression of soluble γδTCRs was done in Freestyle 293-F cells (ThermoFisher). In short, plasmids containing TCRδ, TCRγ and BirA were mixed into a 45:45:10 ratio, combined with polyethylenimine (PEI) in a 2:3 ratio and incubated for 15′ at room temperature. […]
# For tetramer and dextramer staining, 1.0*10^5 cells were incubated with 30 ul tetramer or dextramer solution (100 nM with respect to SA-PE) for 30 minutes at R.T. For beads staining, 7.5*10^4 cells were incubated with 20 μl sTCR-YG-beads (0.33 mg beads/ml) for 30. […] Samples were washed once with 1% formaldehyde and analyzed on a BD FACSCanto II (BD). γδTCR enrichment to synapse and conjugate formation
# [4] = system: RhoB; assay: Intracellular RhoB distribution by confocal microscopy in cell lines; assay type: cell-based; settings: cell lines (EBV-LCL 48)
# Experimental: For intracellular immunofluorescence staining of RhoB, cells were treated with pamidronate overnight (where indicated) and were allowed to attach onto coverslips precoated with poly-Llysine (Sigma-Aldrich). […] Cells were washed with blocking serum, fixed with 4% paraformaldehyde, stained with DAPI (where indicated), and mounted onto microscopy slides using Mowiol. Images were acquired using a Zeiss confocal laser scanning microscope LSM 700. Ratios between nuclear and extranuclear signal of RhoB was determined using Volocity software (PerkinElmer) or Image J software, where DAPI staining was used, when available, to mark nuclei.
# [5] = system: RhoB; assay: Intracellular RhoB distribution in human dendritic cells; assay type: cell-based; settings: human dendritic cells treated with ABP
# Experimental: For intracellular immunofluorescence staining of RhoB, cells were treated with pamidronate overnight (where indicated) and were allowed to attach onto coverslips precoated with poly-Llysine (Sigma-Aldrich). Cells were subsequently permeabilized with Permeabilizing solution 2 (BD), blocked with blocking serum (50% pooled normal human serum in PBS), and stained with a rabbit polyclonal anti-RhoB antibody (AbCam) followed by a secondary Goat anti-Rabbit IgG Alexa Fluor 488-conjugated antibody (Jackson ImmunoResearch). Cells were washed with blocking serum, fixed with 4% paraformaldehyde, stained with DAPI (where indicated), and mounted onto microscopy slides using Mowiol. Images were acquired using a Zeiss confocal laser scanning microscope LSM 700. Ratios between nuclear and extranuclear signal of RhoB was determined using Volocity software (PerkinElmer) or Image J software, where DAPI staining was used, when available, to mark nuclei.
# [6] = system: RhoA; assay: Intracellular RhoA distribution by confocal microscopy in EBV-LCL 48; assay type: cell-based; settings: EBV-LCL 48, with or without ABP
smiles,measurement,setting,value
NCCC(O)(P(=O)(O)O)P(=O)(O)O [pamidronate],colocalization between CD277 and F-actin,[1],markedly reduced
same,close association between RhoB and CD277 (FRET efficiency),[2],increased markedly
same,intensity of TCR-YG-bead conjugation to Daudi cells,[3],did not change
same,Re-localization of RhoB from the nucleus or nuclear membrane to extranuclear sites,[4],induced
same,RhoB exclusion from the nucleus,[5],excluded from the nucleus in human
same,intracellular distribution of RhoA,[6],did not change
